Substitutions are numbered along the chain they refer to.
What was measured:
ALK2 [1] = target: T1, ALK2 (Homo sapiens, UniProt Q04771); assay: TR-FRET enzymatic ALK kinase assay, ALK2
T1 sequence (Q04771 21-509): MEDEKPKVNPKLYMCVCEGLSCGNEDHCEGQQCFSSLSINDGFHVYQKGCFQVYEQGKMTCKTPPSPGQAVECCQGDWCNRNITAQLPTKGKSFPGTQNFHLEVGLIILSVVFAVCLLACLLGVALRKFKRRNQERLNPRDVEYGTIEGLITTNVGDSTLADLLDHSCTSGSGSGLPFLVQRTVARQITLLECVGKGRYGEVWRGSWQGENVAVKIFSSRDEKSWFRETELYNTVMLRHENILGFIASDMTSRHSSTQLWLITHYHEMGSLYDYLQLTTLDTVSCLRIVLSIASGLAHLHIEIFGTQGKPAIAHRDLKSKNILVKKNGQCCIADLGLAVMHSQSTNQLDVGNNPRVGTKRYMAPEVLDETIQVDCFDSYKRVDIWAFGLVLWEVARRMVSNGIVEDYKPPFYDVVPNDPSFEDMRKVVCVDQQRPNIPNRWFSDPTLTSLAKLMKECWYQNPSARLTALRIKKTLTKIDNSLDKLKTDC
Experimental: (§1) Briefly, the ALKs enzymatic assay was initiated by dispense 2.5 μl enzyme in 1× kinase reaction buffer. The assay plate was then added with compounds followed by incubation at room temperature for 10 minutes. Then 2.5 μl/well substrate was added.

ALK2 [2] = target: T2, ALK2 (Mus musculus, UniProt P37172); assay: HTRF pSMAD1 cell-based ALK2 assay (C2C12 cells, BMP6 as agonist); conditions: cell-based assay, BMP6; read-out: Cell IC50 BMP6
T2 construct: The C2C12 cell line was selected for the measurement of ALK2 activity using BMP6 as the agonist; host or cells: C2C12
T2 sequence (P37172 21-509): T1 sequence (Q04771 21-509) with M1V, P10Q, L121I, D162E, P310S
In short: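 Phospho-SMAD1 HTRF readout, detection incubated overnight at room temperature. Before that: starved cells in 0.1% FBS for 4 h, 30 min compound pretreatment, then 30 min agonist, BMP6 on C2C12 or BMP9 on BAOEC.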

ALK5 = target: T3, ALK5 (Homo sapiens, UniProt P36897); assay: TR-FRET enzymatic ALK kinase assay, ALK5
T3 sequence (P36897 34-503): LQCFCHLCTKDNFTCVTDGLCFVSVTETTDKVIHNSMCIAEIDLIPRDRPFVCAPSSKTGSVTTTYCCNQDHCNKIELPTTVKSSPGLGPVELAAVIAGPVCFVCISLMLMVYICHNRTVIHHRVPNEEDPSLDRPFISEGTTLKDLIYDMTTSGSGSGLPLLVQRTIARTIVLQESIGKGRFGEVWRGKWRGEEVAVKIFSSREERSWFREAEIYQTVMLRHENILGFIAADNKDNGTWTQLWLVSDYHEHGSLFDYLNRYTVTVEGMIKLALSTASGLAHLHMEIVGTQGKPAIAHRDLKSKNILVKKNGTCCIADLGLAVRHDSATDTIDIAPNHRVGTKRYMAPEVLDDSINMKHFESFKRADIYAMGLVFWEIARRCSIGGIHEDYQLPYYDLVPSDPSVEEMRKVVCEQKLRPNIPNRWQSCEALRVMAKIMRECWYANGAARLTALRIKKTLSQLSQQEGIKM
Experimental: Six ALK kinase enzyme assays were developed for determination of compound activities on ALK1, ALK2, ALK3, ALK4, ALK5 and ALK6.
as §1

[3] = Cell-based assay, TGFb1 (Cell IC50)
ALK1 = ALK1 (Homo sapiens, UniProt P37023); assay: TR-FRET enzymatic ALK kinase assay, ALK1
ALK1, sequence (P37023 22-503): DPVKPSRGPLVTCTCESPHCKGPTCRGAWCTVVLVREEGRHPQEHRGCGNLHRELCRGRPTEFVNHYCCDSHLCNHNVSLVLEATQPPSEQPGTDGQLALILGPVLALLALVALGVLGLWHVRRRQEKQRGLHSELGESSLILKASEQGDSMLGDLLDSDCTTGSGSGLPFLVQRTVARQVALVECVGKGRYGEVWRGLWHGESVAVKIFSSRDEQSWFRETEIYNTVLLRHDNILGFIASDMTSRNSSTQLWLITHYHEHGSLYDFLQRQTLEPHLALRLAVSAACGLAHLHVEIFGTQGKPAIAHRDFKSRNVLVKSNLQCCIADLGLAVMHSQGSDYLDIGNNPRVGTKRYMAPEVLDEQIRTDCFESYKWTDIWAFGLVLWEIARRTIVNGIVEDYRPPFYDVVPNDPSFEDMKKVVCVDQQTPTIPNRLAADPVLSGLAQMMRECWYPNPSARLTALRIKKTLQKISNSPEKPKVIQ
Experimental: as §1

ALK6 = ALK6 (Homo sapiens, UniProt O00238); assay: TR-FRET enzymatic ALK kinase assay, ALK6
ALK6, sequence (O00238 14-502): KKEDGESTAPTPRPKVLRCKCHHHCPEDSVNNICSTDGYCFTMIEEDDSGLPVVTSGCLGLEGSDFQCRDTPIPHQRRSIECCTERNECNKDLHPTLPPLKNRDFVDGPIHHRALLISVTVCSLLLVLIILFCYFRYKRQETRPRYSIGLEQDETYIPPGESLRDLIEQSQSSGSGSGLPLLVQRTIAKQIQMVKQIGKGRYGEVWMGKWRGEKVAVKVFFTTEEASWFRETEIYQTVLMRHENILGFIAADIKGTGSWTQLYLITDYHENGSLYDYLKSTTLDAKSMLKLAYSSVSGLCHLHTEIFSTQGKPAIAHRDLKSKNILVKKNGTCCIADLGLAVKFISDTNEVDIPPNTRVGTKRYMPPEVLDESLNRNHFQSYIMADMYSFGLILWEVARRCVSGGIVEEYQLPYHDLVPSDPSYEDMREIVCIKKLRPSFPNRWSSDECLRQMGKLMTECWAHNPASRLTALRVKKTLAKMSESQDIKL
Experimental: as §1

ALK4 = target: T4, ALK4 (Homo sapiens, UniProt P36896); assay: TR-FRET enzymatic ALK kinase assay, ALK4
T4 sequence (P36896 24-505): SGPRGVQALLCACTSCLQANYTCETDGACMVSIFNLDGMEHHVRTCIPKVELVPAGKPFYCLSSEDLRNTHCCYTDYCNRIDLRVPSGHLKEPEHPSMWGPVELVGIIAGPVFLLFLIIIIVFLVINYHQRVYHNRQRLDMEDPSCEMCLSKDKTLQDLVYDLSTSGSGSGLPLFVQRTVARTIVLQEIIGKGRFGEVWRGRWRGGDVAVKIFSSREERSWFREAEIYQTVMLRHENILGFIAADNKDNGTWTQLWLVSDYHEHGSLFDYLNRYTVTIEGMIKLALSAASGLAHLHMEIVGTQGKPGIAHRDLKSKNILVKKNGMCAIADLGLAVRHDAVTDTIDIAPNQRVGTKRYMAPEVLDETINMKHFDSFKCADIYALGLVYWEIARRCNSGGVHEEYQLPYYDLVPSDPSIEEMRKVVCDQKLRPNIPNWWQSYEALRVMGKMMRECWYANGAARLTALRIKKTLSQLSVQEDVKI
Experimental: as §1

ALK3 = ALK3 (Homo sapiens, UniProt P36894); assay: TR-FRET enzymatic ALK kinase assay, ALK3
ALK3, sequence (P36894 24-532): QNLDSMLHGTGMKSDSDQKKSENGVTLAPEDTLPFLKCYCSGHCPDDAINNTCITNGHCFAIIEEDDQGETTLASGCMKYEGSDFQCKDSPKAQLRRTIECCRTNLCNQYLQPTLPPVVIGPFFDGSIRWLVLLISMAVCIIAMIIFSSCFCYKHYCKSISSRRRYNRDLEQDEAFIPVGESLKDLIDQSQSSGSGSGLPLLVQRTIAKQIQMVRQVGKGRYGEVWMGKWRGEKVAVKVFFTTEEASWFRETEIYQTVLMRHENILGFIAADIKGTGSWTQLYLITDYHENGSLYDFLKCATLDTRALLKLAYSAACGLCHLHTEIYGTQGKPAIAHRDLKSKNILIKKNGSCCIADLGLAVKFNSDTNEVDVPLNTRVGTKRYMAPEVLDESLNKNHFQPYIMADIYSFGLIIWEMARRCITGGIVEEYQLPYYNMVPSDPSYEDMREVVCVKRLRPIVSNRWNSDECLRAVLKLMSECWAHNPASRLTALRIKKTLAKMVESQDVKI
Experimental: as §1

SMILES | IC50 (ALK2 [1]) [nM] | IC50 (ALK2 [2]) [nM] | IC50 (ALK5) [nM] | IC50 [3] [nM] | IC50 (ALK1) [nM] | IC50 (ALK6) [nM] | IC50 (ALK4) [nM] | IC50 (ALK3) [nM]
NC(=O)c1cccc2c(-c3cnn4cc(-c5ccc(N6C[C@@H]7C[C@H]6CN7)cc5)cnc34)cccc12 [Compound 12, 5-(6-(4-((1S,4S)-2,5-diazabicyclo[2.2.1]heptan-2-yl)phenyl)pyrazolo[1,5-a]pyrimidin-3-yl)-1-naphthamide] | 8.3 | 68 | 21500 | 1240 | 34 | 260 | 2810 | 59
CC(C)(CN1CCCCC1)Oc1ccc(-c2cnc3c(-c4ccc(C(N)=O)c5ccccc45)cnn3c2)cc1 [Compound 17, 4-(6-(4-((2-methyl-1-(piperidin-1-yl)propan-2-yl)oxy)phenyl)pyrazolo[1,5-a]pyrimidin-3-yl)-1-naphthamide] | 5 | 16 | 8580 | 434 | 11 | 1240 | 2020 | 62
C[C@@H]1CNC[C@H](C)N1c1ccc(-c2cnc3c(-c4ccc(C#N)c5ccccc45)cnn3c2)cc1 [Compound 19, 4-(6-(4-((2R,6S)-2,6-dimethylpiperazin-1-yl)phenyl)pyrazolo[1,5-a]pyrimidin-3-yl)-1-naphthonitrile] | 94 | 44 | 151000 | 4440 | 574 | 9840 | 4780 | 1100
C[C@@H]1CNC[C@H](C)N1c1ccc(-c2cnc3c(-c4cccc5c(CO)cccc45)cnn3c2)cc1 [Compound 20, (5-(6-(4-((2R,6S)-2,6-dimethylpiperazin-1-yl)phenyl)pyrazolo[1,5-a]pyrimidin-3-yl)naphthalen-1-yl)methanol] | 16 | 14 | 21700 | 1550 | 22 | 3710 | 3960 | 240
C[C@@H]1CNC[C@H](C)N1c1ccc(-c2cnc3c(-c4ccc(-c5nn[nH]n5)c5ccccc45)cnn3c2)cc1 [Compound 26, 3-(4-(1H-tetrazol-5-yl)naphthalen-1-yl)-6-(4-((2R,6S)-2,6-dimethylpiperazin-1-yl)phenyl)pyrazolo[1,5-a]pyrimidine] | 13 | 2990 | 6110 | 1860 | 48 | 1910 | 3040 | 391

Further lines, results first:

IC50 (ALK2 [1]) [nM] | IC50 (ALK2 [2]) [nM] | IC50 (ALK5) [nM] | IC50 [3] [nM] | IC50 (ALK1) [nM] | IC50 (ALK6) [nM] | IC50 (ALK4) [nM] | IC50 (ALK3) [nM] | SMILES
30 | 333 | 26900 | 580 | 107 | 300 | 1450 | 59 | CC(=O)c1cccc2c(-c3cnn4cc(-c5ccc(N6[C@H](C)CNC[C@@H]6C)cc5)cnc34)cccc12 [Compound 24, 1-(5-(6-(4-((2R,6S)-2,6-dimethylpiperazin-1-yl)phenyl)pyrazolo[1,5-a]pyrimidin-3-yl)naphthalen-1-yl)ethanone]
27 | 114 | 5340 | 2580 | 75 | 568 | 1210 | 123 | C[C@@H]1CNC[C@H](C)N1c1ccc(-c2cnc3c(-c4cccc5c(C#N)cccc45)cnn3c2)cc1 [Compound 25, 5-(6-(4-((2R,6S)-2,6-dimethylpiperazin-1-yl)phenyl)pyrazolo[1,5-a]pyrimidin-3-yl)-1-naphthonitrile]
120 | 148 | > 10000 | 2940 | 540 | 6500 | > 10000 | 1600 | CNS(=O)(=O)c1cccc2c(-c3cnn4cc(-c5ccc(N6[C@H](C)CNC[C@@H]6C)cc5)cnc34)cccc12 [Compound 41, 5-(6-(4-((2R,6S)-2,6-dimethylpiperazin-1-yl)phenyl)pyrazolo[1,5-a]pyrimidin-3-yl)-N-methylnaphthalene-1-sulfonamide]

— US10513521B2, “Compositions and methods for inhibiting BMP” (The Brigham and Women's Hospital, Inc., priority 2014, dated 2019)
